# Legend:
# Format in all cases: functional
# Aspergillus fumigatus = assay: Minimum inhibitory concentration required for in vitro antifungal activity against Aspergillus fumigatus MTU6001 strain
# Mus musculus [1] = assay: Effective dose against Aspergillus fumigatus MTU6001 strain after iv administration in murine
# Mus musculus [2] = assay: Effective dose against Aspergillus fumigatus MTU6001 strain after po administration in murine
# Mus musculus [3] = assay: Effective dose against Candida albicans KB-8 strain after po administration in murine
# Candida albicans = assay: Minimum inhibitory concentration required for in vitro antifungal activity against Candida albicans KB-8 strain
# Mus musculus [4] = assay: Effective dose against Candida albicans KB-8 strain after iv administration in murine
Structure (SMILES),MIC (Aspergillus fumigatus),ED50 (Mus musculus [1]),ED50 (Mus musculus [2]),ED50 (Mus musculus [3]),MIC (Candida albicans),ED50 (Mus musculus [4])
C[C@@H]([C@@](O)(Cn1cncn1)c1ccc(F)cc1F)S(C)(=O)=O,> 800 µg/mL,> 25 mg/kg,> 125 mg/kg,> 100 mg/kg,50 µg/mL,> 25 mg/kg
CC(C(O)(Cn1cncn1)c1ccc(F)cc1F)S(C)(=O)=O (racemic),12.5 µg/mL,–,18 mg/kg,0.38 mg/kg,0.2 µg/mL,–
C[C@H]([C@](O)(Cn1cncn1)c1ccc(F)cc1F)S(C)(=O)=O [GENACONAZOLE],6.25 µg/mL,5.3 mg/kg,4.1 mg/kg,0.27 mg/kg,0.1 µg/mL,0.26 mg/kg
